Measurements published in patent US5103018A, “Mitomycin derivatives” (Kyowa Hakko Kogyo Kabushiki Kaisha, priority 1986, dated 1992).
In brackets after ≈: the same amount, converted by molar mass.

Legend:
Acute toxicity = format: in vivo, mice (ddy); settings: mouse, in vivo, ip; for LD50 at 336 h: ddy mice, single i.p., 14 days, Behren Korber's method; for selectivity ratio: read-out: (C.I.)* = (LD50/ED50)/[(LD50/ED50) of MMC1]
Procedure: (§1) Certain compounds were selected from Compounds I. The following Table 4 indicates anti-tumour activity against Sarcoma 180 solid tumour (ED50), acute toxicity (LD50) and effects on the peripheral leucocytes (WBC4000) of each compound.
Each animal of the test group consisting of 5 ddy mice was once administered (i.p.) with a test compound. […] The LD50 was determined by Behren Korber's method.

in vivo = format: in vivo, mice (ddy strain); settings: mouse, in vivo, ip; read-out: (WBC4000/ED50)* = (WBC4000/ED50)/[(WBC4000/ED50) of MMC1]
Procedure: as §1
(4) Effect upon the number of the peripheral leucocytes:
Sarcoma 180 solid tumour cells (5×10^6) were subcutaneously implanted into the right armpit of each mouse (body weight 20±2 g) of a group consisting of 5 male mice (ddy strain). 24 hours after implantation,a test compound was abdominally administered to each mouse. 4 days later, blood (each 0.02 ml) was collected from the suborbital plexus vein of each tumour-carrying mouse. The collected sample of blood was dispersed in 9.98 ml of Cell-kit Seven solution. One drop of saponin solution was added to the sample to dissolve erythrocytes and then a microcell counter was used to measure the number of leucocytes. On graph paper, the number of leucocytes was indicated on the y-axis by an arithmetic scale and the does of the test compound was indicated on the x-axis by a logarithmic scale.
The relationship between the number of peripheral leucocytes and the dosage of the test compound was plotted to obtain WBC4000 viz. the dosage corresponding to […] per mm^3 (about half of the number of leucocytes of normal mice).

Sarcoma 180 solid tumour = experiment: animal or person; format: in vivo, mice (ddy strain); settings: for ED50: Mus musculus, Sarcoma-180, ip, 168 h, read-out: ED50 ip
Description: as §1
(1) Effect against Sarcoma 180 solid tumour:
5×10^6 cells of Sarcoma 180 solid tumour cells were abdominally implanted into male mice of ddy strain. 7 days after this, ascites cells were sampled. The cells were washed once with a sterilized physiological solution of sodium chloride and were used to prepare a cell suspension containing 5×10^7 cells per ml. On each occasion, 0.1 ml of the cell suspension was subcutaneously implanted into the right armpit of a male mouse (ddy strain; body weight 20±2 g). 24 hours after the implantation of the tumour cells, the test compound which was dissolved in a physiological solution of sodium chloride with or without addition of Tween 80 was abdominally administered to each mouse of a group consisting of 5 animals at a does of 0.1-0.2 ml. The anti-tumour activity was determined as follows:
7 days after the implantation, the major axis (a) and the minor axis (b) of the tumour were measured to calculate a value of "a×b^2 /2" which corresponds to the volume of the tumour. The anti-tumour activity was expressed by T/C viz. the ratio of the volume of the tumours (T) of the group of animals administered with the test compound to the corresponding volume of tumours (C) of the untreated animals.
(2) Determination of ED50 :
The term ED50 denotes the administered amount needed for reducing the volume of Sarcoma 180 solid tumours in the animals to 50% on the basis of the corresponding volume of Sarcoma 180 solid tumours in control (untreated) animals.
On graph paper, T/C was indicated by an arithmetic scale on the longitudinal axis and the administered amount of test compound was indicated by a logarithmic scale on the lateral axis.

[1] = test system: Streptococcus faecalis ATCC 10541; experiment: Minimum inhibitory concentration, agar dilution method, SF; format: cell-based; settings: Enterococcus faecalis, ATCC10541, pH 7, read-out: minimum inhibitory concentration, SF
Description: (§2) Certain Compounds I were selected. Table 3 indicates their anti-bacterial activities in terms of their minimum inhibitory concentration (μg/ml), determined by the agar dilution method effected at a pH of 7.0. In this table, the microorganisms used are abbreviated as follows:
SF: Streptococcus faecalis ATCC 10541

[2] = test system: Staphylococcus aureus ATCC 6583P; experiment: Minimum inhibitory concentration, agar dilution method, SA; format: cell-based; settings: Staphylococcus aureus, ATCC6583P, pH 7, read-out: minimum inhibitory concentration, SA
Description: as §2
SA: Staphylococcus aureus ATCC 6583P

Row | Compound | LD50 at 336 h (Acute toxicity) | selectivity ratio (Acute toxicity) | selectivity ratio (in vivo) | ED50 (Sarcoma 180 solid tumour) | ED50 ip (Sarcoma 180 solid tumour; ddy mice, i.p. 24 h after implantation, 50% reduction of tumour volume at day 7) | MIC [1] | MIC [2]
1 | CC1=C(NCCSSCCNC(=O)[C@@H]2CCC(=O)N2)C(=O)C2=C(C1=O)N1C[C@H]3[C@H](N3C)[C@]1(O)[C@H]2COC(N)=O (stereo partly drawn) [Compound 12, 7-N-[2-[[2-(L-pyroglutamylamino)ethyl]dithio]ethyl]mitomycin D] | 75 mg/kg | 1.8 | 5.57 | 18.4 mg/kg | – | – | –
2 | CC1=C(NCCSSCCNC(=O)CC[C@@H](N)C(=O)O)C(=O)C2=C(C1=O)N1C[C@H]3[C@H](N3C)[C@]1(O)[C@H]2COC(N)=O (stereo partly drawn) [Compound 11, 7-N-[2-[[2-(N^5 -D-glutamino)ethyl]dithio]ethyl]mitomycin D] | 75 mg/kg | 1.59 | 1.64 | 16.9 mg/kg | – | – | –
3 | CO[C@@]12[C@H](COC(N)=O)C3=C(C(=O)C(C)=C(NCCSSCCNC(=O)[C@@H]4CCCN4)C3=O)N1C[C@@H]1N[C@@H]12 [Compound 13, 7-N-[2-[[2-(L-prolylamino)ethyl]dithio]ethyl]mitomycin C] | 30 mg/kg | 1.17 | 2.3 | 12.2 mg/kg | – | – | –
4 | CO[C@@]12[C@H](COC(N)=O)C3=C(C(=O)C(C)=C(NCCSSCCC(=O)N[C@@H](CCCN)C(=O)O)C3=O)N1C[C@@H]1N[C@@H]12 [Compound 22, 7-N-[2-[[2-[[(1S)-4-amino-1-carboxybutyl]carbamoyl]ethyl]dithio]ethyl]mitomycin C] | – | – | – | 5 mg/kg | – | – | –
5 | CC1=C(NCCSSCc2cn([C@H]3C[C@H](O)[C@@H](CO)O3)c(=O)[nH]c2=O)C(=O)C2=C(C1=O)N1C[C@H]3[C@H](N3C)[C@]1(O)[C@H]2COC(N)=O (stereo partly drawn) [Compound 40, 7-N-[2-[[(2'-deoxyuridin-5-yl)methyl]dithio]ethyl]mitomycin D] | ≥ 200 mg/kg | 1.22 | 0.95 | 104 mg/kg | – | – | –
6 | 7-N-[2-[[2-[[(1S)-5-amino-1-carboxypentyl]carbamoyl]ethyl]dithio]ethyl]mitomycin C [Compound 23] | – | – | – | – | 6.2 mg/kg | – | –
7 | CC1=C(NCCSSCc2c[nH]c(=O)[nH]c2=O)C(=O)C2=C(C1=O)N1C[C@H]3[C@H](N3C)[C@]1(O)[C@H]2COC(N)=O (stereo partly drawn) [Compound 38, 7-N-[2-[[(2,4-dioxopyrimidin-5-yl)methyl]dithio]ethyl]mitomycin D] | > 150 mg/kg | > 2.26 | > 8.71 | 24.5 mg/kg | – | – | –
8 | CC1=C(NCCSSCCC(=O)N[C@@H](CCCN)C(=O)O)C(=O)C2=C(C1=O)N1C[C@H]3[C@H](N3C)[C@]1(O)[C@H]2COC(N)=O (stereo partly drawn) [Compound 24, 7-N-[2-[[2-[[(1S)-4-amino-1-carboxybutyl]carbamoyl]ethyl]dithio]ethyl]mitomycin D] | > 100 mg/kg | > 1.53 | 2.02 | 31.2 mg/kg | – | – | –
9 | CC1=C(NCCSSCCNC(=O)C(F)(F)F)C(=O)C2=C(C1=O)N1C[C@H]3[C@H](N3C)[C@]1(O)[C@H]2COC(N)=O (stereo partly drawn) [Compound 20, 7-N-[2-[(2-trifluoroacetamidoethyl)dithio]ethyl]mitomycin D] | 30 mg/kg | 0.93 | 4.4 | 11.6 mg/kg | – | – | –
10 | CCOC(=O)CNC(=O)C(C)SSCCNC1=C(C)C(=O)C2=C(C1=O)[C@@H](COC(N)=O)[C@@]1(OC)[C@H]3N[C@H]3CN21 (stereo partly drawn) [Compound 30, 7-N-[2-[[1-[[(ethoxycarbonyl)methyl]carbamoyl]ethyl]dithio]ethyl]mitomycin C] | – | – | – | 10.3 mg/kg | – | – | –
11 | CO[C@@]12[C@H](COC(N)=O)C3=C(C(=O)C(C)=C(NCCSSCCNC(=O)C(F)(F)F)C3=O)N1C[C@@H]1N[C@@H]12 [Compound 19, 7-N-[2-[(2-trifluoroacetamidoethyl)dithio]ethyl]mitomycin C] | 9.4 mg/kg | 0.51 | > 0.96 | 8.7 mg/kg | – | – | –
12 | CO[C@@]12[C@H](COC(N)=O)C3=C(C(=O)C(C)=C(NCCSSCCOC(=O)/C=C(C)/C=C/C=C(C)/C=C/C4=C(C)CCCC4(C)C)C3=O)N1C[C@@H]1N[C@@H]12 [Compound 35, 7-N-[2-[[2-(retinoyloxy)ethyl]dithio]ethyl]mitomycin C] | – | – | – | – | – | 10 µg/mL (≈ 13.3 µM) | 5 µg/mL (≈ 6.64 µM)
13 | CC1=C(NCCSSCCNC(=O)C[C@H](N)C(=O)O)C(=O)C2=C(C1=O)N1C[C@H]3[C@H](N3C)[C@]1(O)[C@H]2COC(N)=O (stereo partly drawn) [Compound 10, 7-N-[2-[[2-(N^4 -L-asparagino)ethyl]dithio]ethyl]mitomycin D] | 75 mg/kg | 2.19 | 2.5 | 13 mg/kg | – | – | –
14 | CC1=C(NCCSSCCC(=O)N[C@@H](CCCCN)C(=O)O)C(=O)C2=C(C1=O)N1C[C@H]3[C@H](N3C)[C@]1(O)[C@H]2COC(N)=O (stereo partly drawn) [Compound 25, 7-N-[2-[[2-[[(1S)-5-amino-1-carboxypentyl]carbamoyl]ethyl]dithio]ethyl]mitomycin D] | > 100 mg/kg | > 1.02 | 1.59 | 46.6 mg/kg | – | – | –
15 | CO[C@@]12[C@H](COC(N)=O)C3=C(C(=O)C(C)=C(NCCSSCCNC(=O)CCC(=O)Oc4c(C)c(C)c5c(c4C)CC[C@@](C)(CCC[C@H](C)CCC[C@H](C)CCCC(C)C)O5)C3=O)N1C[C@@H]1N[C@@H]12 [Compound 16] | > 100 mg/kg | > 0.37 | 1.2 | 95.9 mg/kg | – | – | –
16 | CC1=C(NCCSSCCNC=O)C(=O)C2=C(C1=O)N1C[C@H]3[C@H](N3C)[C@]1(O)[C@H]2COC(N)=O (stereo partly drawn) [Compound 18, 7-N-[2-[(2-formamidoethyl)dithio]ethyl]mitomycin D] | 52.5 mg/kg | 1.94 | 3.89 | 10.6 mg/kg | – | – | –
17 | CO[C@@]12[C@H](COC(N)=O)C3=C(C(=O)C(C)=C(NCCSSCc4c[nH]c(=O)[nH]c4=O)C3=O)N1C[C@@H]1N[C@@H]12 [Compound 37, 7-N-[2-[[(2,4-dioxopyrimidin-5-yl)methyl]dithio]ethyl]mitomycin C] | – | – | – | 16.4 mg/kg | – | – | –
18 | CO[C@@]12[C@H](COC(N)=O)C3=C(C(=O)C(C)=C(NCCSSCCC(=O)NCCc4ccc(O)c(O)c4)C3=O)N1C[C@@H]1N[C@@H]12 [Compound 31, 7-N-[2-[[2-[[2-(3,4-dihydroxyphenyl)ethyl]carbamoyl]ethyl]dithio]ethyl]mitomycin C] | 26.3 mg/kg | 1.15 | 2.28 | 7.1 mg/kg | – | – | –
19 | CCOC(=O)CNC(=O)CCSSCCNC1=C(C)C(=O)C2=C(C1=O)[C@@H](COC(N)=O)[C@@]1(OC)[C@H]3N[C@H]3CN21 [Compound 29, 7-N-[2-[[2-[[(ethoxycarbonyl)methyl]carbamoyl]ethyl]dithio]ethyl]mitomycin C] | 33.8 mg/kg | 1.77 | 2.9 | 9.4 mg/kg | – | – | –
20 | CO[C@@]12[C@H](COC(N)=O)C3=C(C(=O)C(C)=C(NCCSSCCS(=O)(=O)O)C3=O)N1C[C@@H]1N[C@@H]12 [Compound 36, 7-N-[2-[(2-sulfoethyl)dithio]ethyl]mitomycin C] | – | – | – | 7 mg/kg | – | – | –
